Consider 67 molecules from patent US9326515B2, “Fungicidal 3-[(1,3-thiazol-4-ylmethoxyimino)(phenyl)methyl]-2-substituted-1,2,4-oxadiazol-5(2H)-one derivatives” (BAYER INTELLECTUAL PROPERTY GMBH, priority 2011, dated 2016).

The structures appear in SMILES notation.

As a reminder, the LogP is the decadic logarithm of the partition coefficient of the neutral form, usually between octanol and water.

For one series, the system named is Phytophthora infestans. The class given is in vivo. As to conditions: 100 ppm of active ingredient, spray on young tomato plants, inoculated one day after treatment, evaluated 7 days after inoculation.
Regarding `Cn1oc(=O)nc1C(=NOCc1csc(NC(=O)C(C)(C)C)n1)c1ccccc1` [Example 3], the Eff. % came to 84%.

For `Cn1oc(=O)nc1C(=NOCc1csc(NC(=O)OC2CC3CCC2C3)n1)c1ccccc1` (centres unmarked) [Example 6], the Eff. % is listed as 90%.

In the case of `CCCCC(CC)COC(=O)Nc1nc(CON=C(c2ccccc2)c2nc(=O)on2C)cs1` (centres unmarked) [Example 7], the Eff. % was 85%.

`Cn1oc(=O)nc1C(=NOCc1csc(NC(=O)c2ccccc2)n1)c1ccccc1` [Example 15] had an Eff. % of 92%.

Tested on in the next series: not given
As to conditions: pH 2.7.
The molecule `CCCCC(C)C(=O)Nc1nc(CO/N=C(/c2ccccc2)c2nc(=O)on2C)cs1` (racemic) [Example 42] registered a LogP of 3.42.

The molecule `CC(C)C(C)OC(=O)Nc1nc(CO/N=C(/c2ccccc2)c2nc(=O)on2C)cs1` (racemic) [Example 46] returned a lipophilicity (LogP) of 3.35. This LogP and that of the molecule before are within 0.2 log units of each other.

`CC(C(=O)Nc1nc(CO/N=C(/c2ccccc2)c2nc(=O)on2C)cs1)c1ccccc1` (racemic) [Example 49] yielded a LogP of 3.15.

Molecule `CC(OC(=O)Nc1nc(CO/N=C(/c2ccccc2)c2nc(=O)on2C)cs1)C1CCCCC1` (racemic) [Example 56] registered a LogP of 4.31.

In turn, `Cn1oc(=O)nc1C(=NOCc1csc(NC(=O)C(C)(C)C)n1)c1ccccc1` [Example 3] returned a LogP of 2.84.

Turning to `Cn1oc(=O)nc1C(=NOCc1csc(NC(=O)Oc2ccc(F)cc2)n1)c1ccccc1` [Example 5], the LogP is reported as 3.02.

Molecule `Cn1oc(=O)nc1C(=NOCc1csc(NC(=O)OC2CC3CCC2C3)n1)c1ccccc1` (centres unmarked) [Example 6] registered a LogP of 3.60.

The molecule `CCCCC(CC)COC(=O)Nc1nc(CON=C(c2ccccc2)c2nc(=O)on2C)cs1` (centres unmarked) [Example 7] had a log partition coefficient (LogP) of 4.56.

`Cn1oc(=O)nc1C(=NOCc1csc(NC(=O)c2ccccc2)n1)c1ccccc1` [Example 15] returned a LogP of 2.88.

With `COc1cccc(/C(=N/OCc2csc(NC(=O)C(C)(C)Oc3ccccc3)n2)c2nc(=O)on2C)c1` [Example 36], the lipophilicity (LogP) stood at 3.63.

In the case of `CCn1oc(=O)nc1/C(=N\OCc1csc(NC(=O)OCCc2ccccc2)n1)c1ccccc1` [Example 37], the lipophilicity (LogP) was 3.55.

`CCn1oc(=O)nc1/C(=N\OCc1csc(NC(=O)COc2ccccc2)n1)c1ccccc1` [Example 38] returned a LogP of 3.17.

`COCCn1oc(=O)nc1/C(=N\OCc1csc(NC(=O)OCCc2ccccc2)n1)c1ccccc1` [Example 39] showed a lipophilicity (LogP) of 3.55.

With `C#CCCCC(=O)Nc1nc(CO/N=C(/c2ccccc2)c2nc(=O)on2C)cs1` [Example 40], the LogP is 2.54.

The molecule `Cn1oc(=O)nc1/C(=N\OCc1csc(NC(=O)CCC2CCCCC2)n1)c1ccccc1` [Example 41] showed a LogP of 3.92.

The molecule `Cn1oc(=O)nc1/C(=N\OCc1csc(NC(=O)CCC2CCCC2)n1)c1ccccc1` [Example 43] returned a LogP of 3.58.

The molecule `Cn1oc(=O)nc1/C(=N\OCc1csc(NC(=O)OCCC2CCCCC2)n1)c1ccccc1` [Example 45] registered a LogP of 4.21.

`CC#CCOC(=O)Nc1nc(CO/N=C(/c2ccccc2)c2nc(=O)on2C)cs1` [Example 47] showed a LogP of 2.66.

Regarding `Cc1ccc(C(=O)Nc2nc(CO/N=C(/c3ccccc3)c3nc(=O)on3C)cs2)cc1` [Example 48], the LogP came to 3.17.

`CC(C)[C@@H]1CC[C@@H](C)C[C@H]1OC(=O)Nc1nc(CO/N=C(/c2ccccc2)c2nc(=O)on2C)cs1` [Example 50] returned a LogP of 4.91.

The molecule `Cn1oc(=O)nc1/C(=N\OCc1csc(NC(=O)OC(C)(C)C(Cl)(Cl)Cl)n1)c1ccccc1` [Example 51] returned a LogP of 3.96.

Regarding `Cn1oc(=O)nc1/C(=N\OCc1csc(NC(=O)OCCC2CCCC2)n1)c1ccccc1` [Example 52], the LogP amounted to 3.96.

The molecule `Cn1oc(=O)nc1/C(=N\OCc1csc(NC(=O)CC2CCCC2)n1)c1ccccc1` [Example 53] gave a LogP of 3.19.

Consider `CC#CCCOC(=O)Nc1nc(CO/N=C(/c2ccccc2)c2nc(=O)on2C)cs1` [Example 54], for which the LogP came to 2.80.

Take `CC(C)CCOC(=O)Nc1nc(CO/N=C(/c2ccccc2)c2nc(=O)on2C)cs1` [Example 55]: the LogP amounted to 3.44.

The molecule `Cn1oc(=O)nc1/C(=N\OCc1csc(NC(=O)CCc2ccccc2)n1)c1ccccc1` [Example 57] had a LogP of 3.09.

Consider `Cn1oc(=O)nc1/C(=N\OCc1csc(NC(=O)C2CCCC2)n1)c1ccccc1` [Example 58], for which the LogP was 2.88.

Molecule `CCCCOC(=O)Nc1nc(CO/N=C(/c2ccccc2)c2nc(=O)on2C)cs1` [Example 59] displayed a LogP of 3.13.

For the molecule `CCCCC(=O)Nc1nc(CO/N=C(/c2ccccc2)c2nc(=O)on2C)cs1` [Example 60], the log partition coefficient (LogP) is given as 2.80.

The molecule `Cn1oc(=O)nc1/C(=N\OCc1csc(NC(=O)OCC(C)(C)C)n1)c1ccccc1` [Example 61] came in with a LogP of 3.39.

The molecule `CC(C)CC(=O)Nc1nc(CO/N=C(/c2ccccc2)c2nc(=O)on2C)cs1` [Example 62] displayed a LogP of 2.75.

On to `Cn1oc(=O)nc1C(=NOCc1csc(NC(=O)OCC2CCCCC2)n1)c1ccccc1` [Example 63], for which the LogP stood at 3.92.

With `C=CCCCCOC(=O)Nc1nc(CON=C(c2ccccc2)c2nc(=O)on2C)cs1` [Example 64], the LogP was 3.51.

Turning to `Cn1oc(=O)nc1C(=NOCc1csc(NC(=O)Cc2ccccc2)n1)c1ccccc1` [Example 65], the LogP worked out at 2.82.

In the case of `Cn1oc(=O)nc1C(=NOCc1csc(NC(=O)OCCCC2CCCC2)n1)c1ccccc1` [Example 66], the LogP worked out at 4.36.

Molecule `C#CCOC(=O)Nc1nc(CON=C(c2ccccc2)c2nc(=O)on2C)cs1` [Example 67] came in with a LogP of 2.49.

Regarding `Cc1cccc(C(=O)Nc2nc(CON=C(c3ccccc3)c3nc(=O)on3C)cs2)c1` [Example 68], the LogP is recorded as 3.19.

As for `CCCCCOC(=O)Nc1nc(CON=C(c2ccccc2)c2nc(=O)on2C)cs1` [Example 69], the LogP stood at 3.51.

`COc1ccc(CC(=O)Nc2nc(CON=C(c3ccccc3)c3nc(=O)on3C)cs2)cc1` [Example 70] displayed a LogP of 2.80.

`COc1cccc(C(=O)Nc2nc(CON=C(c3ccccc3)c3nc(=O)on3C)cs2)c1` [Example 71] had a lipophilicity (LogP) of 2.98.

`CCC#CCOC(=O)Nc1nc(CON=C(c2ccccc2)c2nc(=O)on2C)cs1` [Example 72]: the LogP came out at 2.98.

Consider `Cn1oc(=O)nc1C(=NOCc1csc(NC(=O)OCC#Cc2ccccc2)n1)c1ccccc1` [Example 73], for which the LogP worked out at 3.44.

The molecule `Cn1oc(=O)nc1C(=NOCc1csc(NC(=O)C2(C)CCCCC2)n1)c1ccccc1` [Example 74] yielded a lipophilicity (LogP) of 3.58.

The molecule `Cn1oc(=O)nc1C(=NOCc1csc(NC(=O)Cc2cccs2)n1)c1ccccc1` [Example 75] came in with a LogP of 2.71.

The molecule `C=CCC(C)OC(=O)Nc1nc(CON=C(c2ccccc2)c2nc(=O)on2C)cs1` (centres unmarked) [Example 76] yielded a LogP of 3.15.

In turn, `CC=CCCCOC(=O)Nc1nc(CON=C(c2ccccc2)c2nc(=O)on2C)cs1` [Example 77] gave a LogP of 3.55.

Consider `Cn1oc(=O)nc1C(=NOCc1csc(NC(=O)OCCC2CC2)n1)c1ccccc1` [Example 78], for which the LogP was 3.15.

`Cn1oc(=O)nc1C(=NOCc1csc(NC(=O)OCCCC2CC2)n1)c1ccccc1` [Example 79] registered a LogP of 3.51.

`CC(CC1CC1)OC(=O)Nc1nc(CON=C(c2ccccc2)c2nc(=O)on2C)cs1` (centres unmarked) [Example 80]: the lipophilicity (LogP) came out at 3.42.

Turning to `CC#CCC(C)OC(=O)Nc1nc(CON=C(c2ccccc2)c2nc(=O)on2C)cs1` (centres unmarked) [Example 81], the LogP stood at 3.06.

`Cn1oc(=O)nc1C(=NOCc1csc(NC(=O)OCCCCC(F)(F)F)n1)c1ccccc1` [Example 82] came in with a LogP of 3.27.

Consider `Cn1oc(=O)nc1C(=NOCc1csc(NC(=O)OCCCC2CCCCC2)n1)c1ccccc1` [Example 83], for which the LogP is recorded as 4.71.

`COc1cccc(C(=NOCc2csc(NC(=O)COc3ccccc3)n2)c2nc(=O)on2C)c1` [Example 84] displayed a LogP of 3.02.

The molecule `COc1cccc(C(=NOCc2csc(NC(=O)OCCc3ccccc3)n2)c2nc(=O)on2C)c1` [Example 85] returned a LogP of 3.39.

Regarding `COc1cccc(C(=NOCc2csc(NC(=O)CC3CCCC3)n2)c2nc(=O)on2C)c1` [Example 86], the LogP worked out at 3.25.

`CCC(C)(C)C(=O)Nc1nc(CON=C(c2ccccc2)c2nc(=O)on2C)cs1` [Example 87] returned a lipophilicity (LogP) of 3.13.

For the molecule `Cn1oc(=O)nc1C(=NOCc1csc(NC(=O)OCC2CC2)n1)c1ccccc1` [Example 88], the LogP was determined as 2.84.

With `Cn1oc(=O)nc1C(=NOCc1csc(NC(=O)c2csc3ccccc23)n1)c1ccccc1` [Example 89], the log partition coefficient (LogP) amounted to 3.57.

The molecule `Cn1oc(=O)nc1C(=NOCc1csc(NC(=O)C2CCCCC2)n1)c1ccccc1` [Example 90] showed a LogP of 3.19.

`Cn1oc(=O)nc1C(=NOCc1csc(NC(=O)c2ccc(F)cc2)n1)c1ccccc1` [Example 91]: the LogP is given as 3.00.

As to `CC(OC(=O)Nc1nc(CON=C(c2ccccc2)c2nc(=O)on2C)cs1)C(C)(C)C` (centres unmarked) [Example 92], the LogP amounted to 3.65.

The molecule `Cn1oc(=O)nc1/C(=N\OCc1csc(NC(=O)OCCCCl)n1)c1ccccc1` [Example 93] returned a LogP of 2.80.

Regarding `C=C(C)COC(=O)Nc1nc(CO/N=C(/c2ccccc2)c2nc(=O)on2C)cs1` [Example 94], the LogP is 2.92.

`CC(OC(=O)Nc1nc(CO/N=C(/c2ccccc2)c2nc(=O)on2C)cs1)C1CCCC1` (centres unmarked) [Example 95] registered a LogP of 3.85.

The molecule `Cn1oc(=O)nc1/C(=N\OCc1csc(NC(=O)OCc2ccccc2)n1)c1ccccc1` [Example 96] showed a lipophilicity (LogP) of 3.17.

In the case of `COc1ccc(OC(=O)Nc2nc(CO/N=C(/c3ccccc3)c3nc(=O)on3C)cs2)cc1` [Example 97], the LogP is given as 2.94.

Take `CCN(O)C(=N)/C(=N\OCc1csc(NC(=O)COc2ccccc2)n1)c1ccccc1` [Example V-1]: the LogP is recorded as 2.42.
